In US11490644B2, “Co-Q10, krill oil and vitamin D” (RB HEALTH (US) LLC, priority 2015, dated 2022):
Where two headings read alike, the source gives them in different places.

Key:
Assay type in all cases: physicochemical
[1] = Antioxidant study: influence of antioxidant on Co-Q10 stability in krill oil and Vitamin D; details: for Amount of Co-Q10: in krill oil and Vitamin D with the antioxidant
Protocol: (§1) Several antioxidants were evaluated for their ability to stabilize Co-Q10 in krill oil and Vitamin D. The results are summarized in Table 2.

[2] = Influence of antioxidant dosing on Co-Q10 stability
Protocol: as §1

[3] = Stability of Co-Q10 and Co-QH in krill oil and Vitamin D mixtures, accelerated conditions; details: over the 12-week period; 40° C., 75% relative humidity
Protocol: Two formulations comprising Co-Q10 (Study I) and Co-QH (Study II) were evaluated for stability in krill oil and Vitamin D mixtures. The compositions were subjected to accelerated conditions (40° C., 75% relative humidity for up to 12 weeks), and the amounts of Co-Q10, Co-QH, and ubichromenol were evaluated at several time points.

[4] = Influence of chelating agent on Co-Q10 stability; details: with the chelating agent
[5] = antioxidant medium dose, 1 week
[6] = antioxidant medium dose, 2 weeks
[7] = antioxidant medium dose, Initial

O=C1O[C@H]([C@@H](O)CO)C(O)=C1O [Ascorbic Acid]
Amount of Co-Q10 ([1]; 1 week): 133 mg
Amount of Co-Q10 ([1]; 2 weeks): 129 mg
Amount of Co-Q10 ([1]; Initial): 139 mg
Amount of Co-Q10 ([2]; antioxidant high dose, 1 week): 100 mg
Amount of Co-Q10 ([2]; antioxidant high dose, 2 weeks): 100 mg
Amount of Co-Q10 ([2]; antioxidant high dose, Initial): 109 mg
Amount of Co-Q10 ([2]; antioxidant low dose, 1 week): 91 mg
Amount of Co-Q10 ([2]; antioxidant low dose, 2 weeks): 71 mg
Amount of Co-Q10 ([2]; antioxidant low dose, Initial): 137 mg
Amount of Co-Q10 [2, 5]: 136 mg
Amount of Co-Q10 [2, 6]: 138 mg
Amount of Co-Q10 [2, 7]: 145 mg

COC1=C(OC)C(=O)C(C/C=C(\C)CC/C=C(\C)CC/C=C(\C)CC/C=C(\C)CC/C=C(\C)CC/C=C(\C)CC/C=C(\C)CC/C=C(\C)CC/C=C(\C)CCC=C(C)C)=C(C)C1=O [Co-Q10, Coenzyme Q10]
Stability in krill oil and Vitamin D (in words) [3]: unstable

COc1c(O)c(C)c(C/C=C(\C)CC/C=C(\C)CC/C=C(\C)CC/C=C(\C)CC/C=C(\C)CC/C=C(\C)CC/C=C(\C)CC/C=C(\C)CC/C=C(\C)CCC=C(C)C)c(O)c1OC [Co-QH, ubiquinol]
Stability in krill oil and Vitamin D (in words) [3]: stable

O=C(O)CN(CCN(CC(=O)O)CC(=O)O)CC(=O)O [EDTA]
Amount of Co-Q10 ([4]; 1 week): 10 mg
Amount of Co-Q10 ([4]; 2 weeks): 0 mg
Amount of Co-Q10 ([4]; Initial): 125 mg

C=CCc1ccc(O)c(OC)c1 [Eugenol]
Ability to stabilize Co-Q10 in krill oil and Vitamin D (in words) [1]: degrades rapidly
Amount of Co-Q10 ([1]; 1 week): 48 mg
Amount of Co-Q10 ([1]; 2 weeks): 25 mg
Amount of Co-Q10 ([1]; Initial): 142 mg
Amount of Co-Q10 ([2]; antioxidant high dose, 1 week): 43 mg
Amount of Co-Q10 ([2]; antioxidant high dose, 2 weeks): 26 mg
Amount of Co-Q10 ([2]; antioxidant high dose, Initial): 146 mg
Amount of Co-Q10 ([2]; antioxidant low dose, 1 week): 16 mg
Amount of Co-Q10 ([2]; antioxidant low dose, 2 weeks): 14 mg
Amount of Co-Q10 ([2]; antioxidant low dose, Initial): 142 mg
Amount of Co-Q10 [2, 5]: 23 mg
Amount of Co-Q10 [2, 6]: 16 mg
Amount of Co-Q10 [2, 7]: 146 mg

CC(=O)OO [Peracetic acid (PAA), Peracetic acid]
Amount of Co-Q10 ([4]; 1 week): 10 mg
Amount of Co-Q10 ([4]; 2 weeks): 0 mg
Amount of Co-Q10 ([4]; Initial): 137 mg

NC(N)=S [Thiourea]
Ability to stabilize Co-Q10 in krill oil and Vitamin D (in words) ([1]; Table 2): degrades rapidly
